# Assays:
# [1] = biological target: T1, PSMA (Homo sapiens (Human), UniProt Q04609); test: Competitive binding assay (IC50) on LNCaP cells with radioligand [125I-BA]KuE; details: 1 hour on ice, radioligand [^125I-BA]KuE 0.2 nM, mean ± SD
# Experimental: In the case of the PSMA constructs, the radioiodinated ((S)-1-carboxy-5-(4-(-^125I-iodo-benzamido)pentyl)carbamoyl)-L-glutamic acid ([^125I-BA]KuE) was used as reference radioligand. The assay was performed on LNCaP cells seeded in 24-well plates (1.5×10^5 cells/well). The cells were incubated with increased concentrations of each ^natCu-complexed conjugates (ranging from 0.1 up to 100 nM) in the presence of 0.2 nM [^125I-BA]KuE. After 1 hour incubation on ice, the unbound (free) [^125I-BA]KuE was collected by removing the medium and the cells were detached with NaOH 1 M for counting (bound radioligand). Non-specific binding was defined as the amount of binding activity in the presence of the blocking agent 2-(phosphonomethyl)pentanedioic acid (2-PMPA) in high excess (10 μM).
# Quantification of the free and bound radioligand was performed in a gamma-counter. The data were analyzed by GraphPad Prism 9 Software and the IC50 values were determined using the “log(inhibitor) vs response” equation based on the specific binding=total−non-specific binding.
# Table 18. IC50 values were determined by competitive assays. […] The results are expressed as means standard deviation (SD) from a minimum of two separate experiments, each in triplicates.
# [2] = test system: HEK-SST2 xenografts; test: PET/CT imaging in HEK-SST2 xenografted mice; format: in vivo; details: 0-60 min and 240 min
# Experimental: (§1) Tumor xenografted mice were injected intravenously into the tail vein with the tested radiotracer. […] Mice were anesthetized with 1.5% isoflurane and dynamic PET scans were acquired during 1 hour upon injection of the radiotracer. The mice were euthanized by CO2 at 4 hours p.i., the bladder was mechanically emptied, and static PET scans were acquired for 30 min. PET images were acquired using the R-CUBE PET scanner system (MOLECUBES, Gent, Belgium) and they were decay corrected and reconstructed with the VivoQuant software version 4.0. The CT was imaged supine, headfirst, using the NanoSPECT/CT™ scanner (Bioscan Inc.). Topograms and helical CT scans of the whole mouse were first acquired using the following parameters: X-ray tube current: 177 μA, X-ray tube voltage 45 kVp, 90 seconds and 180 frames per rotation, pitch 1. CT images were reconstructed using CTReco (version r1.146), with a standard filtered back projection algorithm (exact cone beam) and post-filtered (RamLak, 100% frequency cut-off), resulting in a pixel size of 0.2 mm. Co-registered PET/CT images were visualized using maximum intensity projection (MIP) with InVivoScope (version 1.43, Bioscan Inc.). The results are presented in the Examples that follow.
# [3] = in vivo; details: iv, 20 umol, total radioactivity
# Experimental: The tumors were allowed to grow for 1-3 weeks before commencement of the experiments.
# The mice were randomly distributed in groups and euthanized at 1 and at 4 hours post-injection. The organs of interest were collected, rinsed, blotted, weighed and counted in a gamma counter. The results are expressed as percentage of injected activity per gram (% IA/g), representing the mean±standard deviation of n=4-8 mice per group and they were obtained by extrapolation from counts of an aliquot taken from the injected solution as standard.
# The mice were randomly distributed in groups, injected with the radiotracer under investigation and euthanized at 1 and at 4 hours post-injection of the radiotracers under investigation. The organs of interest were collected, rinsed, blotted, weighed and counted in a gamma counter. The results are expressed as percentage of injected activity per gram (% IA/g), representing the mean±standard deviation of all mice per group and they were obtained by extrapolation from counts of an aliquot taken from the injected solution as standard.
# The mice were randomly distributed in groups and euthanized at 4 hours post-injection. The organs of interest were collected, rinsed, blotted, weighed, and their respective radioactivity was counted in a gamma counter.
# [4] = test system: LNCaP xenografts; test: Quantitative biodistribution in LNCaP xenografted mice; format: in vivo; details: LNCaP xenografts
# [5] = test system: LNCaP xenografts; test: PET/CT imaging in LNCaP xenografted mice; format: in vivo; details: LNCaP-xenografted nude mice
# Experimental: as §1
# [6] = Lipophilicity, log D by shake-flask method (1-octanol/PBS pH 7.4); format: physicochemical; details: shake-flask, Table 17, mean ± SD
# Experimental: The radiotracer (1 μM) was added to a 50:50 pre-saturated mixture of 1-octanol and phosphate buffered saline (PBSpH 7.4). The solution was vortexed for 30 min and then centrifuged at 3,000 rpm to achieve a phase separation. Aliquots from each phase were collected and measured in a gamma-counter. The distribution coefficient was calculated as the average of the logarithmic values of the ratio between the radioactivity in the organic and the PBS phase.
# Table 17. Lipophilicity expressed as the log distribution coefficient D (log D(Octanol/PBS pH7.4)) of ^61Cu-radiotracers versus ^68Ga-radiotracers (reference radiotracers).
# In a pre-lubricated Eppendorf tube, a pre-saturated mixture of 500 μL of 1-octanol and 500 μL of PBS pH 7.4 (phosphate-buffered saline) were added. An aliquot of […] in 10 μL of the radioligand was added to this mixture, shaken for 30 min, and then centrifuged at 3000 rcf for 10 min to achieve phase separation. Aliquots of 100 μL were removed from the 1-octanol and from the PBS phases, and the activity was measured in a […]. The partition coefficient was calculated as the average log ratio value of the radioactivity in the organic fraction and PBS fraction.
# [7] = biological target: T1, PSMA; test: Specificity study: PET/CT in LNCaP xenografts after blocking with 2-PMPA, and free [61Cu]CuCl2; format: in vivo, mice; details: PET/CT 1 hour p.i.
# Experimental: The specificity of [^61Cu]Cu-NODAGA-PSMA-I&T and [^61Cu]Cu-DOTAGA-PSMA-I&T was assessed in LNCaP xenografted mice, firstly injected with 1.3 μmol (300 μg) of 2-Phosphonomethyl pentanedioic acid (2-PMPA) as the blocking agent, followed by the injection of the radiotracer e.g. [^61Cu]Cu-DOTAGA-PSMA-I&T (100 μL/[…]/4-8 MBq) or [^61Cu]Cu-NODAGA-PSMA-I&T (100 μL/[…]/4-8 MBq). One-hour post injection PET/CT images were acquired as described in Example 8. In addition, PET/CT image of xenografts after injection of [^61Cu]CuCl2 (100 μL/7 MBq) was acquired in order to assess the total body distribution of free (uncomplexed)^61Cu. The results are shown in FIG. 10, panels A and B. L=liver; K=kidneys; T=tumor; Bl=bladder; I=intestine.
# [8] = test system: LNCaP cells; test: In vitro cellular uptake (cell surface and internalized fractions) in LNCaP cells; format: cell-based; details: for Cell surface fraction / Internalized fraction: specific uptake
# Experimental: The cellular uptake was studied in vitro using intact cells seeded in 6-well plates overnight. On the day of the experiment, the cells were washed and incubated with each of the exemplified [^61Cu]Cu-radiotracer at different time points, either alone or in the presence of a blocking agent to distinguish between specific and non-specific uptake. At each investigated time point, the medium containing the unbound (free) radiotracer was removed, followed by two washing steps with ice-cold phosphate-buffered saline. The cells were then treated 2×5 min with ice-cold glycine solution (0.05 M, pH 2.8) to detach the cell surface-bound radiotracer (acid released). Afterwards, the cells containing the internalized radiotracer were detached with 1 M NaOH at 37° C. and collected for measurement. The amount of specific cell surface-bound and internalized radiotracer is expressed as percentage of the total applied activity, after subtracting the non-specific values.
# 2-(phosphonomethyl)-pentanedioic acid (2-PMPA, 10 μM) was used to determine non-specific binding (FIG. 14).
# Cellular uptake and distribution between cell surface (cell membrane bound) and internalized fractions of ^61Cu-labeled PSMA-I&T constructs versus their ^68Ga counterparts (Table 19). The values are expressed as % of the applied activity and refer to the specific uptake calculated after subtracting the non-specific values (measured in the presence of 10 μM 2-PMPA) from the total values (specific=total−non specific).
# T1 sequence (Q04609 whole entry): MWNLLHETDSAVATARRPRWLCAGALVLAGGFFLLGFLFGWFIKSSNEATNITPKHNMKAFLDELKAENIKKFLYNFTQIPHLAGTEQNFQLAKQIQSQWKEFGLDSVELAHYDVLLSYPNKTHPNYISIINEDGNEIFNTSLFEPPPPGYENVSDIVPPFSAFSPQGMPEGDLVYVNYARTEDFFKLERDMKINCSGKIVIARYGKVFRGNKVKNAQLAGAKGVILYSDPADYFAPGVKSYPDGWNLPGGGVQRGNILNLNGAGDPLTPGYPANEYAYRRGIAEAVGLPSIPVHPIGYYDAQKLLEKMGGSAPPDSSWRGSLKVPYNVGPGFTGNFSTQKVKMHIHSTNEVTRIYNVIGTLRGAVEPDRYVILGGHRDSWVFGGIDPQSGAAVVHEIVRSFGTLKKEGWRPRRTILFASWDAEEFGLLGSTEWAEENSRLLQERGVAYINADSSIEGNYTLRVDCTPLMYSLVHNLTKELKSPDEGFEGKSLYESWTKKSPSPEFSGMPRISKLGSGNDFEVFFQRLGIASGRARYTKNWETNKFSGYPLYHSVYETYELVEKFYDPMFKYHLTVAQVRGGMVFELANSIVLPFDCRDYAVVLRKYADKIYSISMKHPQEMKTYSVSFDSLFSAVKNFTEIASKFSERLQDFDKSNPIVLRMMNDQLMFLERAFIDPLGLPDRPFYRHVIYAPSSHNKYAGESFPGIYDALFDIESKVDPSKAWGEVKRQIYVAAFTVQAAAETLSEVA
smiles,measurement,setting,value
O=C([O-])CN1CCN(CC(=O)[O-])CCN([C@H](CCC(=O)N[C@H](Cc2ccc(O)c(I)c2)C(=O)N[C@H](Cc2ccccc2)C(=O)N[C@H](CCCCNC(=O)CCCCCCC(=O)NCCCC[C@H](NC(=O)N[C@@H](CCC(=O)O)C(=O)O)C(=O)O)C(=O)O)C(=O)O)CC1.[Cu+2] [^natCu-NODAGA-PSMA-I&T],IC50,[1],9.3 ± 1.8 nM
"O=C([O-])CN1CCN(CC(=O)[O-])CCN(C(CCC(=O)N[C@H](Cc2ccc(O)c(I)c2)C(=O)N[C@H](Cc2ccccc2)C(=O)N[C@H](CCCCNC(=O)CCCCCCC(=O)NCCCC[C@H](NC(=O)N[C@@H](CCC(=O)O)C(=O)O)C(=O)O)C(=O)O)C(=O)O)CCN(CC(=O)O)CC1.[Cu+2] (stereo partly drawn) [^natCu-DOTAGA-PSMA-I&T, reference compound]",IC50,[1],11.2 ± 2.3 nM
"C[C@@H](O)[C@@H]1NC(=O)[C@H](CCCCN)NC(=O)[C@@H](Cc2ccc(NC(N)=O)cc2)NC(=O)[C@H](Cc2ccc(O)cc2)NC(=O)[C@H](NC(=O)[C@H](Cc2ccc(Cl)cc2)NC(=O)CC[C@H](C(=O)O)N2CCN(CC(=O)O)CCN(CC(=O)O)CC2)CSSC[C@@H](C(=O)N[C@H](Cc2ccc(O)cc2)C(N)=O)NC1=O [[^61Cu]Cu-(R)-NODAGA-LM3, metal not drawn]",distribution pattern on PET/CT,[2],same distribution pattern
same,tissue uptake at 4 h,"[3]; athymic nude Foxn1+Foxn1+, mouse, Biodistribution Adrenal",0.61 ± 0.18 %ID/g
same,tissue uptake at 4 h,"[3]; athymic nude Foxn1+Foxn1+, mouse, Biodistribution Blood",0.1 ± 0.01 %ID/g
same,tissue uptake at 4 h,"[3]; athymic nude Foxn1+Foxn1+, mouse, Biodistribution Heart",0.17 ± 0.02 %ID/g
same,tissue uptake at 4 h,"[3]; athymic nude Foxn1+Foxn1+, mouse, Biodistribution Intestine",0.58 ± 0.13 %ID/g
same,tissue uptake at 4 h,"[3]; athymic nude Foxn1+Foxn1+, mouse, Biodistribution Liver",0.73 ± 0.06 %ID/g
same,tissue uptake at 4 h,"[3]; athymic nude Foxn1+Foxn1+, mouse, Biodistribution Lung",0.42 ± 0.05 %ID/g
same,tissue uptake at 4 h,"[3]; athymic nude Foxn1+Foxn1+, mouse, Biodistribution Pancreas",0.44 ± 0.24 %ID/g
same,tissue uptake at 4 h,"[3]; athymic nude Foxn1+Foxn1+, mouse, Biodistribution Spleen",0.17 ± 0.02 %ID/g
same,tissue uptake at 4 h,"[3]; athymic nude Foxn1+Foxn1+, mouse, Biodistribution Stomach",0.78 ± 0.14 %ID/g
same,tissue uptake at 4 h,"[3]; athymic nude Foxn1, mouse, Biodistribution Bone",0.42 ± 0.12 %ID/g
same,tissue uptake at 4 h,"[3]; athymic nude Foxn1, mouse, Biodistribution Kidneys",3.87 ± 0.51 %ID/g
same,tissue uptake at 4 h,"[3]; athymic nude Foxn1, mouse, Biodistribution Muscle",0.1 ± 0.02 %ID/g
same,tissue uptake at 4 h,"[3]; athymic nude Foxn1, mouse, Biodistribution Pituitary",3.64 ± 0.31 %ID/g
same,tissue uptake at 4 h,"[3]; athymic nude Foxn1, mouse, Biodistribution SSTR2-tumor",19 ± 2.11 %ID/g
O=C([O-])CN1CCN(CC(=O)[O-])CCN(C(CCC(=O)N[C@H](Cc2ccc(O)c(I)c2)C(=O)N[C@H](Cc2ccccc2)C(=O)N[C@H](CCCCNC(=O)CCCCCCC(=O)NCCCC[C@H](NC(=O)N[C@@H](CCC(=O)O)C(=O)O)C(=O)O)C(=O)O)C(=O)O)CCN(CC(=O)O)CC1.[61Cu+2] (stereo partly drawn) [[^61Cu]Cu-DOTAGA-PSMA-I&T],Biodistribution Adrenal,[4]; 1 hour p.i.,9.35 ± 1.50 % IA/g
same,Biodistribution Blood,[4]; 1 hour p.i.,2.06 ± 0.24 % IA/g
same,Biodistribution Bone,[4]; 1 hour p.i.,2.31 ± 0.36 % IA/g
same,Biodistribution Heart,[4]; 1 hour p.i.,3.73 ± 0.32 % IA/g
same,Biodistribution Intestine,[4]; 1 hour p.i.,8.95 ± 0.62 % IA/g
same,Biodistribution Kidneys,[4]; 1 hour p.i.,57 ± 6 % IA/g
same,Biodistribution LNCaP-tumor,[4]; 1 hour p.i.,6.06 ± 0.25 % IA/g
same,Biodistribution Liver,[4]; 1 hour p.i.,19.3 ± 3.3 % IA/g
same,Biodistribution Lung,[4]; 1 hour p.i.,6.35 ± 0.35 % IA/g
same,Biodistribution Muscle,[4]; 1 hour p.i.,1.00 ± 0.05 % IA/g
same,Biodistribution Pancreas,[4]; 1 hour p.i.,2.82 ± 0.67 % IA/g
same,Biodistribution Salivary glands,[4]; 1 hour p.i.,5.60 ± 1.39 % IA/g
same,Biodistribution Spleen,[4]; 1 hour p.i.,4.64 ± 1.35 % IA/g
same,Biodistribution Stomach,[4]; 1 hour p.i.,7.77 ± 0.62 % IA/g
same,Ratio Tumor/Blood,[4]; 1 hour p.i.,2.97 ± 0.23
same,Ratio Tumor/Kidney,[4]; 1 hour p.i.,0.11 ± 0.01
same,Ratio Tumor/Liver,[4]; 1 hour p.i.,0.32 ± 0.05
same,Ratio Tumor/Muscles,[4]; 1 hour p.i.,6.08 ± 0.22
same,Biodistribution Adrenal,[4]; 4 hours p.i.,6.46 ± 2.38 % IA/g
same,Biodistribution Blood,[4]; 4 hours p.i.,1.12 ± 0.24 % IA/g
same,Biodistribution Bone,[4]; 4 hours p.i.,1.69 ± 0.25 % IA/g
same,Biodistribution Heart,[4]; 4 hours p.i.,2.08 ± 0.33 % IA/g
same,Biodistribution Intestine,[4]; 4 hours p.i.,7.74 ± 1.76 % IA/g
same,Biodistribution Kidneys,[4]; 4 hours p.i.,22.1 ± 2.2 % IA/g
same,Biodistribution LNCaP-tumor,[4]; 4 hours p.i.,4.88 ± 0.63 % IA/g
same,Biodistribution Liver,[4]; 4 hours p.i.,13.9 ± 2.2 % IA/g
same,Biodistribution Lung,[4]; 4 hours p.i.,4.67 ± 0.76 % IA/g
same,Biodistribution Muscle,[4]; 4 hours p.i.,0.48 ± 0.08 % IA/g
same,Biodistribution Pancreas,[4]; 4 hours p.i.,1.71 ± 0.23 % IA/g
same,Biodistribution Salivary glands,[4]; 4 hours p.i.,2.31 ± 0.19 % IA/g
same,Biodistribution Spleen,[4]; 4 hours p.i.,2.95 ± 0.73 % IA/g
same,Biodistribution Stomach,[4]; 4 hours p.i.,7.10 ± 0.97 % IA/g
same,Ratio Tumor/Blood,[4]; 4 hours p.i.,4.56 ± 1.49
same,Ratio Tumor/Kidney,[4]; 4 hours p.i.,0.22 ± 0.04
same,Ratio Tumor/Liver,[4]; 4 hours p.i.,0.35 ± 0.05
same,Ratio Tumor/Muscles,[4]; 4 hours p.i.,10.5 ± 2.8
same,accumulation in tumor and target-positive tissues,[4],high accumulation in PSMA-positive (LNCaP) tumor and PSMA-positive tissues
same,distribution on PET/CT images,[5],"lower tumor, but also lower kidney uptake"
same,log D(O/PBS pH 7.4),[6],−2.69±0.44
same,uptake in PSMA-positive tumors and kidneys in xenografts pre-injected with 2-PMPA,[7],significantly lower uptake
same,Cell surface fraction,[8]; 5 min,3.7 ± 0.5 % of the applied activity
same,Internalized fraction,[8]; 5 min,0.7 ± 0.1 % of the applied activity
same,Cell surface fraction,[8]; 15 min,8.1 ± 0.7 % of the applied activity
same,Internalized fraction,[8]; 15 min,2.8 ± 0.2 % of the applied activity
same,Cell surface fraction,[8]; 30 min,11.6 ± 1.0 % of the applied activity
same,Internalized fraction,[8]; 30 min,6.2 ± 0.5 % of the applied activity
same,Cell surface fraction,[8]; 60 min,13.4 ± 0.8 % of the applied activity
same,Internalized fraction,[8]; 60 min,13.3 ± 0.5 % of the applied activity
same,Cell surface fraction,[8]; 120 min,14.7 ± 1.0 % of the applied activity
same,Internalized fraction,[8]; 120 min,21.3 ± 0.9 % of the applied activity
same,PSMA-mediated cellular uptake,[8]; after 2h at 37° C.,approx. 35%
same,part of the cellular uptake being internalized,[8]; after 2h at 37° C.,50-60%

# From US20240173440A1, “HIGH PURITY COPPER RADIOPHARMACEUTICAL COMPOSITIONS AND DIAGNOSTIC AND THERAPEUTIC USES THEREOF” (Nuclidium AG, priority 2022, published 2024)
